Results reported in patent publication US11103532B2, “Chimeric protein” (AUTOLUS LIMITED, priority 2015, dated 2021).

B1: FRB-Casp9: catalytic domain of Casp9 fused with FRB; tested co-expressed with FKBP12-Casp9 (protein)
chain: MASRILWHEMWHEGLEEASRLYFGERNVKGMFEVLEPLHAMMERGPQTLKETSFNQAYGRDLMEAQEWCRKYMKSGNVKDLLQAWDLYYHVFRRISKLEYSGGGSGVDGFGDVGALESLRGNADLAYILSMEPCGHCLIINNVNFCRESGLRTRTGSNIDCEKLRRRFSSLHFMVEVKGDLTAKKMVLALLELAQQDHGALDCCVVVILSHGCQASHLQFPGAVYGTDGCPVSVEKIVNIFNGTSCPSLGGKPKLFFIQACGGEQKDHGFEVASTSPEDESPGSNPEPDATPFQEGLRTFDQLDAISSLPTPSDIFVSYSTFPGFVSWRDPKSGSWYVETLDDIFEQWAHSEDLQSLLLRVANAVSVKGIYKQMPGCFNFLRKKLFFKTSAS
modifications: Chimeric protein FRB-dCasp9

Test system: T-cells
Test: Deletion of chimeric protein-expressing T-cells with Rapamycin (Annexin-V/7AAD flow cytometry)
Assay type: cell-based
Details: 48 hours; for deletion of transduced T-cells: different concentrations of Rapamycin, live cells expressing fluorescent proteins; for deletion of T-cells expressing both eGFP and eBFP2: lowest concentration of Rapamycin, co-transduced pair
Procedure: T-cells were either transduced with eGFP alone (FIG. 2a), or co-transduced with FKBP12-dCasp9 (co-expressing eGFP) and FRB-dCasp9 (co-expressing eBFP2) (FIG. 2b). T-cells were intentionally only partially transduced so that the non-transduced T-cells would act as internal controls. […] After 48 hours, cells were stained with Annexin-V and 7AAD and analysed by flow cytometry looking at the proportion of live cells which were expressing fluorescent proteins.
FIG. 3—Function of RapCasp9 variants. T-cells were transduced with (a) eGFP alone; (b) double transduced with FKBP12-Casp9 and FRB-Casp9 co-expressed with eGFP and eBFP2 respectively; (c) transduced with FRB-FKBP12-Casp9 and (d) transduced with FRB-Casp9-FKBP12 and (e) FBP12-Casp9-2A-FRB-FRBw. Only a proportion of cells were transduced, the negative cells acted as an internal negative control. […] T-cells were then stained with Annexin-V and 7AAD and analysed by flow-cytometry. eGFP vs eBFP2 is shown on live cells as determined by Annexin-V and 7AAD staining.
T-cells were transduced with the different constructs. For the two-molecule rapCasp9 (FIG. 1a), T-cells were transduced with two vectors: one coding for FKBP12-Casp9 co-expressed with the green fluorescent protein eGFP by means of an internal ribosome entry sequence, and the other coding for FRB-Casp9 co-expressed with the blue fluorescent protein eBFP2. For the one molecule rapCasp9 (FIG. 1b), T-cells were transduced with just one vector coding for the respective rapCasp9 which are co-expressed eGFP. A construct which provided FKB12-Casp9 and FRB-FRBw was encoded in a tri-cistronic cassette whereby the FKBP12-Casp9 and FRB-FRBw were co-expressed using a FMD-2A like peptide and eGFP was co-expressed with an IRES. The T-cells were intentionally only partially transduced so within the cell culture a proportion of cells remained non-transduced to act as an internal negative control.
Following this, T-cells were stained with Annexin-V and 7AAD and analysed by flow-cytometry. By gating on the live cells, and interrogating the population of cells expressing fluorescent proteins, survival of the transduced and non-transduced populations could be clearly measured.

Row | Molecule | deletion of transduced T-cells | deletion of T-cells expressing both eGFP and eBFP2
1 | FKBP12-Casp9/FRB-FRBw: Caspase 9 catalytic domain fused to FKBP12, co-expressed with a fusion of two copies of FRB | effective deletion of single positive cells | –
2 | FKBP12-Casp9: catalytic domain of Casp9 fused with FKBP12; tested co-expressed with FRB-Casp9 | effective deletion of only double positive cells | very effectively deleted
3 | FKBP12-FRB-Casp9: single construct where FKBP12 and FRB are fused together and then fused to the catalytic domain of Casp9 by a flexible linker | effective deletion of single positive cells | –
4 | B1 | effective deletion of only double positive cells | very effectively deleted
